Reference: patent US8772500B2, “TRPV3 modulators” (AbbVie Inc., priority 2011, dated 2014)
pIC50: −log10 of the molar value.

Experiments:
[1] = In vitro rat microsomal stability assay; assay type: in vitro ADME, rat (Sprague-Dawley); conditions: Sprague-Dawley, rat, 0.5 h, 0.5 μM, pH 7.4
Method in brief: (§1)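 Stability readout reflects compound turnover by hepatic microsomes from Sprague-Dawley rats or from humans, according to the assay. Reactions at 37 °C contained NADPH, which was present in the zero-time plates as well.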

[2] = biological target: T1, human TRPV3 (Homo sapiens, UniProt Q8NET8); test: In vitro antagonism of recombinant human TRPV3 activation (FLIPR Tetra calcium assay, 2-APB as agonist); assay type: cell-based; conditions: HEK293 cells stably expressing human TRPV3; 2-APB 80 μM; range class; read-out: IC50 (reported range)
T1 construct: expressed in transfected cells
T1 sequence (Q8NET8 1-790): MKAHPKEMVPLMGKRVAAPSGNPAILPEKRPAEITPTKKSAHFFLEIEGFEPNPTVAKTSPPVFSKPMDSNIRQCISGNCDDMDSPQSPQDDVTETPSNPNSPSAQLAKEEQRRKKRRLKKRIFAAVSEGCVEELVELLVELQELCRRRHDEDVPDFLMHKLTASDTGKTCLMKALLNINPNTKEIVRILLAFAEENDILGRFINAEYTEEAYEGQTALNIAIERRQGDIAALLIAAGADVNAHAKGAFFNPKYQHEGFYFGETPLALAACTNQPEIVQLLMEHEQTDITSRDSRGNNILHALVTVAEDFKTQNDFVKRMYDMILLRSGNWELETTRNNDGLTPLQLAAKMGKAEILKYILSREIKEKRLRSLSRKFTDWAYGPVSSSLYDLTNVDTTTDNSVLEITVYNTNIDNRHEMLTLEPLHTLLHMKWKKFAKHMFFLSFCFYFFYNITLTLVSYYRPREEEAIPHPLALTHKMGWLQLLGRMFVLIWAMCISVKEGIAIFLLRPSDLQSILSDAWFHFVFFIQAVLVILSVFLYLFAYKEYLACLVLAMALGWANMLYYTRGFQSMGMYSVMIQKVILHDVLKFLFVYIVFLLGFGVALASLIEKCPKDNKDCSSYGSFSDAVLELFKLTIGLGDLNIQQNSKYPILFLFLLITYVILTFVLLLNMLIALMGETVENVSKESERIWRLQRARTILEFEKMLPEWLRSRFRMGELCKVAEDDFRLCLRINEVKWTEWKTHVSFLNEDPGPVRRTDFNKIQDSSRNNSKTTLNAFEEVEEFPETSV
Method in brief: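 Readout is FLIPR fluorescence, max minus min as percent of uninhibited 2-APB response, giving IC50 (usually mean of ≥2 runs). Stable human TRPV3 HEK293 cells, Calcium-4 dye-loaded, got test compound then, three minutes later, 80 μM 2-APB (EC80); run length 10 min.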

[3] = In vitro human microsomal stability assay; assay type: in vitro ADME; conditions: human, 0.5 h, 0.5 μM, pH 7.4
Method in brief: as §1

SMILES: Cc1ccc(C2(C(O)c3ccccn3)CCC2)cc1 (stereo not drawn) [Example 9, [1-(4-methylphenyl)cyclobutyl](pyridin-2-yl)methanol]
- RAT MICROSOMAL STABILITY (% REMAINING AFTER 30 MINUTES) [1]: 0.18%
- pIC50 [2]: 5.30 to 5.96
- HUMAN MICROSOMAL STABILITY (% REMAINING AFTER 30 MINUTES) [3]: 0.12%

SMILES: OC(c1ccccn1)C1(c2ccc(F)c(Cl)c2)CC2(C1)OCCO2 (stereo not drawn) [Example 255, [2-(3-chloro-4-fluorophenyl)-5,8-dioxaspiro[3.4]oct-2-yl](pyridin-2-yl)-methanol]
- RAT MICROSOMAL STABILITY (% REMAINING AFTER 30 MINUTES) [1]: <0.01%
- pIC50 [2]: 4.70 to 5.29
- HUMAN MICROSOMAL STABILITY (% REMAINING AFTER 30 MINUTES) [3]: 54%

SMILES: OC(c1ccccn1)C1(C2CCC(F)(F)CC2)CCC1 (stereo not drawn) [Example 274, [1-(4,4-difluorocyclohexyl)cyclobutyl](pyridin-2-yl)methanol]
- RAT MICROSOMAL STABILITY (% REMAINING AFTER 30 MINUTES) [1]: 10%
- pIC50 [2]: 5.30 to 5.96
- HUMAN MICROSOMAL STABILITY (% REMAINING AFTER 30 MINUTES) [3]: 55%

SMILES: OC(c1ccccn1)C1(C2CCCOC2)CCC1 (stereo not drawn) [Example 281, pyridin-2-yl[1-(tetrahydro-2H-pyran-3-yl)cyclobutyl]methanol]
- RAT MICROSOMAL STABILITY (% REMAINING AFTER 30 MINUTES) [1]: 0.054%
- pIC50 [2]: 4.70 to 5.29
- HUMAN MICROSOMAL STABILITY (% REMAINING AFTER 30 MINUTES) [3]: >85%

SMILES: OC1CC(c2ccc(C(F)(F)F)cc2)(C(O)c2ccccn2)C1 [Example 200, cis-3-[(S)-hydroxy(pyridin-2-yl)methyl]-3-[4-(trifluoromethyl)phenyl]-cyclobutanol]
- RAT MICROSOMAL STABILITY (% REMAINING AFTER 30 MINUTES) [1]: >85%
- pIC50 [2]: 4.70 to 5.29
- HUMAN MICROSOMAL STABILITY (% REMAINING AFTER 30 MINUTES) [3]: >85%

SMILES: OC(C1CCCc2cccnc21)C1(c2ccc(Cl)c(Cl)c2)CCC1 (stereo not drawn) [Example 181, (anti)-[1-(3,4-dichlorophenyl)cyclobutyl][5,6,7,8-tetrahydroquinolin-8-yl]-methanol]
- RAT MICROSOMAL STABILITY (% REMAINING AFTER 30 MINUTES) [1]: <0.01%
- pIC50 [2]: 5.30 to 5.96
- HUMAN MICROSOMAL STABILITY (% REMAINING AFTER 30 MINUTES) [3]: <0.01%

SMILES: O[C@H](c1ncccn1)C1(c2ccc(Cl)c(Cl)c2)CCC1 [Example 39, (S)-[1-(3,4-dichlorophenyl)cyclobutyl](pyrimidin-2-yl)methanol]
- RAT MICROSOMAL STABILITY (% REMAINING AFTER 30 MINUTES) [1]: 11%
- pIC50 [2]: 6.00 to 6.30
- HUMAN MICROSOMAL STABILITY (% REMAINING AFTER 30 MINUTES) [3]: 51%

SMILES: OC(c1ccccn1)C1(c2ccc(C(F)(F)F)cc2)CCCO1 (stereo not drawn) [Example 88, (anti)-pyridin-2-yl{2-[4-(trifluoromethyl)phenyl]tetrahydrofuran-2-yl}-methanol]
- RAT MICROSOMAL STABILITY (% REMAINING AFTER 30 MINUTES) [1]: 7.0%
- pIC50 [2]: 6.30 to 7.30
- HUMAN MICROSOMAL STABILITY (% REMAINING AFTER 30 MINUTES) [3]: 38%

SMILES: OC1CC(c2cccc(OC(F)(F)F)c2)(C(O)c2ccccn2)C1 [Example 272, cis-3-[(S)-hydroxy(pyridin-2-yl)methyl]-3-[3-(trifluoromethoxy)phenyl]-cyclobutanol]
- RAT MICROSOMAL STABILITY (% REMAINING AFTER 30 MINUTES) [1]: 48%
- pIC50 [2]: 6.30 to 7.30
- HUMAN MICROSOMAL STABILITY (% REMAINING AFTER 30 MINUTES) [3]: 54%

SMILES: COC1CC(c2ccc(Cl)c(Cl)c2)([C@H](O)c2ccccn2)C1 (stereo partly drawn) [Example 151, (S)-[1-(3,4-dichlorophenyl)-3-methoxycyclobutyl](pyridin-2-yl)methanol]
- RAT MICROSOMAL STABILITY (% REMAINING AFTER 30 MINUTES) [1]: <0.01%
- pIC50 [2]: 5.30 to 5.96
- HUMAN MICROSOMAL STABILITY (% REMAINING AFTER 30 MINUTES) [3]: 32%

SMILES: OC1CC(c2ccc(Cl)c(Cl)c2)(C(O)c2ccccn2)C1 [Example 247, cis-3-(3,4-dichlorophenyl)-3-[(R)-hydroxy(pyridin-2-yl)methyl]cyclobutanol]
- RAT MICROSOMAL STABILITY (% REMAINING AFTER 30 MINUTES) [1]: >85%
- pIC50 [2]: 5.30 to 5.96
- HUMAN MICROSOMAL STABILITY (% REMAINING AFTER 30 MINUTES) [3]: 62%
